According to patent US6649654B1, “Methods for identifying and using IKK inhibitors” (The Regents of the University of California, priority 1999, dated 2003):
“Also recorded” adds a separate entry of the source.

Columns and labels:
IKKβ(C179A) = target: T1, IKKβ(C179A) (Homo sapiens, UniProt O14920, C179A); assay: IKKβ(C179A) coexpressed with NIK in HeLa cells, kinase activity; assay type: cell-based; settings: HeLa cells coexpressing NIK, treated 2 hours
T1 sequence (O14920 1-756 C179A): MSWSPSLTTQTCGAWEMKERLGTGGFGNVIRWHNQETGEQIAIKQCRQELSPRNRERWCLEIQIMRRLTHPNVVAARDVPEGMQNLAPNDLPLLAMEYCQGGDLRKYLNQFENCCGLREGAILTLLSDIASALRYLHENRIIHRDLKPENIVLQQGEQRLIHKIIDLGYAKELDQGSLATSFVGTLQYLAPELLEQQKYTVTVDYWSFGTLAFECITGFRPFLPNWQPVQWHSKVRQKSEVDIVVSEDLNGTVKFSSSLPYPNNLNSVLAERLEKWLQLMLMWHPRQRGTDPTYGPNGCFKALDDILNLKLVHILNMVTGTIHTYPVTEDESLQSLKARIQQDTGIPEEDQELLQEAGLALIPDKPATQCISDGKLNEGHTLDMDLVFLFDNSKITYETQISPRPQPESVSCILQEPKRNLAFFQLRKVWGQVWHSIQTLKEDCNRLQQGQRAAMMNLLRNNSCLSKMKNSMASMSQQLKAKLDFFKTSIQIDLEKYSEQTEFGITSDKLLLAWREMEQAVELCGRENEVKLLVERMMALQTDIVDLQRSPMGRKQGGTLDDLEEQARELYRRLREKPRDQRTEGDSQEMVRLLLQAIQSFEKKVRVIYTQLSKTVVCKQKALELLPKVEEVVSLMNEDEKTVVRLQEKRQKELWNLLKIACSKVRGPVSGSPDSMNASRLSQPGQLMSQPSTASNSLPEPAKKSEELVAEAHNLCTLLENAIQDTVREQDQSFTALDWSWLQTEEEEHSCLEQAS
Protocol: In an experiment to determine whether this cysteine is critical for sensitivity to cyPG, cysteine was replaced with an alanine using site-directed mutagenesis. In these experiments, HeLa cells were transiently transfected with expression vectors for IKKβ(WT) or IKKβ(C179A) with or without a NIK expression vector. After 16 hours, NIK transfected cells were treated for 2 hours with 15dPGJ2. Kinase activity (KA) and expression (IB:HA) were subsequently determined. Thus, wild-type (WT) IKKβ and mutant IKKβ (i.e., IKKβ(C179A)) were coexpressed with NIK in HeLa cells and their sensitivity to 15dPGJ2 examined. While both constructs were equally responsive to NIK, resulting in similar levels of kinase activity, the IKKβ(C179A) mutant was resistant to inhibitor (See, FIG. 6C).

wild-type IKKβ = assay: 2XNFκB-LUC reporter in HeLa cells with NIK and wild-type IKKβ; assay type: cell-based; settings: luciferase at 24 hours, FIG. 6E
Protocol: Recombinant IKKβ(C179A) was also resistant to concentrations of 15dPGJ2 that were inhibitory to wild-type IKKβ (as shown in FIG. 6D), and also to PGA1. An NF-κB dependent transcriptional reporter (2XNFκB-LUC) was preincubated with expression vector encoding either wild-type IKKβ or IKKβ(C179A). A NIK expression vector was included to ensure maximal IKK activation. […] FIG. 6E provides the results for HeLa cells transiently transfected with a 2×NF-κB-LUC reporter, a NIK expression vector and expression vectors for wild type IKKβ or IKKβ(C179A). At 3 hours post-transfection, cells were treated with 15dPGJ2 and at 24 hours, the luciferase activities were determined for duplicate samples. In each case, the maximal activity achieved in the absence of inhibitor was given an arbitrary value of 100% and the other values were calculated relative to this one.

[1] = tested on: inducible nitric oxide synthase (iNOS); settings: activated monocytes; cited from earlier work
IκBα = IκBα degradation in stimulated Jurkat cells (immunoblot); assay type: cell-based, human; settings: TNFα or TPA
Protocol: Cells used in the experiments described herein were cultured in either RPMI 1640 (Jurkat cells) or DMEM (HeLa and COS cells), supplemented with 10% FBS and antibiotics. Cells were stimulated with either 25 ng/ml TPA, 20 ng/ml recombinant TNFα, or 10 ng/ml interleukin 1β (Sigma). PGA1, 15dPGJ2, T×B2, LTB4, AA and other PGs (Cayman) dissolved in ethanol were used as well, as known in the art (See e.g., Rossi et al., 94:746-750 [1997]). Controls received equal amounts of ethanol. Transfections were performed using Lipofectamine Plus (GIBCO) for HeLa and COS cells and DEAE-dextran (Sigma) for Jurkat cells. Xpress-tagged NIK, Xpress-tagged MEKK1, HA-tagged IKKα, and HA-tagged IKKβ were also used (See e.g., Zandi et al., Science 281:1360-1363 [1998]; and Delhase et al., Science 284:309-313 [1999]). COX2 and cPLA2 expression vectors were obtained from Dr. L. Feng (See also, Hirose et al., J. Am. Soc. Nephrol., 9:408-416 [1998]). PGD synthase was cloned from HT29 colon carcinoma cell line cDNA by PCR and subcloned into a pCDNA3 vector. […]
In addition, recombinant IKKβ was expressed in Sf9 cells and purified as described (Zandi et al., supra). […] After 1.5 hours at 4° C., the immunoprecipitates were washed and the kinase activity determined. […]

Row | sensitivity of IKKβ(C179A) kinase activity to inhibitor (IKKβ(C179A)) | SMILES | sensitivity of NF-κB transcriptional activity through wild-type IKKβ (wild-type IKKβ) | production of inducible nitric oxide synthase (iNOS) [1] | effect on IκBα degradation (IκBα)
1 | resistant | CCCCC/C=C/C=C1/C(=O)C=C[C@@H]1C/C=C\CCCC(=O)O [15dPGJ2, 15-deoxy-Δ^12-14-PGJ2] | highly sensitive | inhibits | –
2 | – | CCCCC[C@H](O)/C=C/[C@H]1C=CC(=O)C1CCCCCCC(=O)O (stereo partly shown) [PGA1, prostaglandin A1] | – | – | prevent IκBα degradation; also recorded: prevented
